The values below come from patent US20120129897A1, “BIS HETEROARYL INHIBITORS OF PRO-MATRIX METALLOPROTEINASE ACTIVATION” (priority 2010, published 2012).

Counter-ions that a name gives are not always drawn.

What is called Kd is the concentration at which binding is half-saturated. As a reminder, the IC50 is the midpoint of a concentration-inhibition curve.

Test [1] concerns the target T1, proMMP9(20-445;ΔFnII) (SEQ ID NO:6) (Homo sapiens, UniProt P14780, DEL216-390).
T1 construct: start methionine (N); made in house; host or cells: E. coli BL21(DE3) RIL
T1 sequence (P14780 with tags, fused parts or gaps DEL216-390): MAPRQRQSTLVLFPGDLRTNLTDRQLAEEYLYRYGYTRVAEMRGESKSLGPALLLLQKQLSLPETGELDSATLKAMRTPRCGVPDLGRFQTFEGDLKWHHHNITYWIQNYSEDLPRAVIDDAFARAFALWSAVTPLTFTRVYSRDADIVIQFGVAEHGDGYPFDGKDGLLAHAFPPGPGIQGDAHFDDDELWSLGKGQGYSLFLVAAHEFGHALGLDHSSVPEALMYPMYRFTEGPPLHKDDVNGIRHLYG
Nature of the test: ThermoFluor binding assay with proMMP9(20-445;ΔFnII). The procedure: (§1) The ThermoFluor® (TF) assay is a 384-well plate-based binding assay that measures thermal stability of proteins (Biomol Screen 2001, 6, 429-40; Biochemistry 2005, 44, 5258-66). The experiments were carried out using instruments available from Johnson & Johnson Pharmaceutical Research & Development, LLC. TF dye used in all experiments was […] (1,8-ANS) (Invitrogen: A-47).
(§2) Compounds were arranged in a pre-dispensed plate (Greiner Bio-one: 781280), wherein compounds were serially diluted in 100% DMSO across 11 columns within a series. Columns 12 and 24 were used as DMSO reference and contained no compound. For multiple compound concentration-response experiments, the compound aliquots ([…]) were robotically predispensed directly into black 384-well polypropylene PCR microplates (Abgene: TF-0384/k) using a Cartesian Hummingbird liquid handler (DigiLab, Holliston, Mass.). Following compound dispense, protein and dye solutions were added to achieve the final assay volume of 3 μL. The assay solutions were overlayed with 1 μL of silicone oil (Fluka, type DC 200: 85411) to prevent evaporation.
(§3) Assay plates were robotically loaded onto a thermostatically controlled PCR-type thermal block and then heated from 40 to 90° C. at a ramp-rate of 1° C./min for all experiments. Fluorescence was measured by continuous illumination with UV light (Hamamatsu LC6) supplied via fiber optics and filtered through a band-pass filter (380-400 nm; >60D cutoff). Fluorescence emission of the entire 384-well plate was detected by measuring light intensity using a CCD camera (Sensys, Roper Scientific) filtered to detect 500±25 nm, resulting in simultaneous and independent readings of all 384 wells. A single image with 20-sec exposure time was collected at each temperature, and the sum of the pixel intensity in a given area of the assay plate was recorded vs temperature and fit to standard equations to yield the Tm (J Biomol Screen 2001, 6, 429-40).
(§4) Thermodynamic parameters necessary for fitting compound binding for each proMMP were estimated by differential scanning calorimetry (DSC) and from ThermoFluor® data. The heat capacity of unfolding for each protein was estimated from the molecular weight and from ThermoFluor® dosing data.
The protein sample preparations included a desalting buffer exchange step via a PD-10 gravity column (GE Healthcare). The desalting buffer exchange was performed prior to diluting the protein to the final assay concentration of 2.8 μM proMMP9(20-445;ΔFnII) (SEQ ID NO:6). The concentration of proMMP9(20-445;ΔFnII) (SEQ ID NO:6) was determined spectrophotometrically based on a calculated extinction coefficient of ε280=39880 M^−1cm^−1, a calculated molecular weight of 28.2 kDa, and calculated pI of 5.5. ThermoFluor® reference conditions were define as follows: 80 μg/mL (2.8 μM) proMMP9(20-445;ΔFnII) (SEQ ID NO:6), 50 μM 1,8-ANS, pH 7.0 Buffer (50 mM HEPES pH 7.0, 100 mM NaCl, 0.001% Tween-20, 2.5 mM MgCl2, 300 μM CaCl2). The thermodynamic parameters for proMMP9(20-445;ΔFnII) (SEQ ID NO:6) are as follows: Tm (° C.)=72 (+/−0.1), ΔUH(Tm) (cal mol^−1)=160000(+/−5000), ΔUS(Tm) (cal mol^−1 K^−1)=434, ΔUCp ([…])=2400.
On the technique in general: DSF heats the sample and reads unfolding from a dye or from intrinsic fluorescence.

In test [2] the target is T2, proMMP9(67-444;ΔFnII) (SEQ ID NO:5) (Homo sapiens, UniProt P14780, DEL216-390).
T2 construct: start methionine (N); made in house; host or cells: E. coli BL21(DE3) RIL
T2 sequence (P14780 with tags, fused parts or gaps DEL216-390): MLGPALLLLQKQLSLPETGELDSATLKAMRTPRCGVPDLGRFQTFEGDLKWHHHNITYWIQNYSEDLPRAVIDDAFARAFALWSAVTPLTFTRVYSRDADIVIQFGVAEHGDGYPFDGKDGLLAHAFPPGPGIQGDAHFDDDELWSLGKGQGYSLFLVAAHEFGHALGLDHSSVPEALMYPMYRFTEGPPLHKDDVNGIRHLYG
The experiment in a line: ThermoFluor binding assay with proMMP9(67-444;ΔFnII). As to the method:
as §1, §2, §3, §4
The protein sample preparations had to include a desalting buffer exchange step via a PD-10 gravity column (GE Healthcare). The desalting buffer exchange was performed prior to diluting the protein to the final assay concentration of 3.5 μM proMMP9(67-444;ΔFnII) (SEQ ID NO:5). The concentration of proMMP9(67-444;ΔFnII) (SEQ ID NO:5) was determined spectrophotometrically based on a calculated extinction coefficient of ε280=33900 M^−1cm^−1, a calculated molecular weight of 22.6 kDa, and calculated pI of 5.20. ThermoFluor® reference conditions were defined as follows: 80 μg/mL (3.5 μM) proMMP9(67-444;ΔFnII) (SEQ ID NO:5), 50 μM 1,8-ANS, pH 7.0 Buffer (50 mM HEPES pH 7.0, 100 mM NaCl, 0.001% Tween-20, 2.5 mM MgCl2, 300 μM CaCl2). The thermodynamic parameters for proMMP9(67-444;ΔFnII) (SEQ ID NO:5) are as follows: Tm (° C.)=63 (+/−0.1), ΔUH(Tm) (cal mol^−1)=105000(+/−5000), ΔUS(Tm) (cal mol^−1 K^−1)=[…], ΔUCp (cal mol^−1 K^−1)=2000.

Test [3] deals with T3, full-length proMMP9(1-707) (SEQ ID NO:1) (Homo sapiens, UniProt P14780, R574P).
T3 construct: made in house; host or cells: HEK293 (proMMP9, secreted); E. coli (MMP3)
Nature of the test: proMMP9/MMP3 P126 Activation Assay. It is filed as biochemical. Conditions: 20 nM proMMP9, 20 nM MMP3, 80 min 37° C. The procedure: The reaction volume was 50 μL. […] Reactivity of residual MMP3 towards P-126 substrate was minimal under these conditions.

The target of test [4] is T4, proMMP13(1-268) (SEQ ID NO:7) (Homo sapiens, UniProt P45452). Nature of the test: ThermoFluor binding assay with proMMP13(1-268). Also noted: 6x-histidine (C); made in house. The procedure:
as §1, §2, §3, §4
The proMMP13(1-268) (SEQ ID NO:7) protein sample preparations included a desalting buffer exchange step via a PD-10 gravity column (GE Healthcare). The desalting buffer exchange was performed prior to diluting the protein to the final assay concentration of 3.5 μM. The concentration of proMMP13(1-268) (SEQ ID NO:7) was estimated spectrophotometrically based on a calculated extinction coefficient of ε280=37000 M^−1cm^−1, a calculated molecular weight of 30.8 kDa, and calculated pI of 5.33. ThermoFluor® reference conditions were defined as follows: 100 μg/mL proMMP13(1-268) (SEQ ID NO:7), 25 μM 1,8-ANS, pH 7.0 Buffer (50 mM HEPES pH 7.0, 100 mM NaCl, 0.001% Tween-20, 2.5 mM MgCl2, 300 μM CaCl2). The thermodynamic parameters for proMMP13(1-268) (SEQ ID NO:7) are as follows: Tm (° C.)=67 (+/−0.1), ΔUH(Tm) (cal mol^−1)=107000(+/−5000), ΔUS(Tm) (cal mol^−1 K^−1)=318, ΔUCp (cal mol^−1 K^−1)=2600.

Test [5] addresses T4, proMMP13(1-268) (SEQ ID NO:7). The experiment in a line: ProMMP13/Plasmin P126 Activation Assay. Also noted: 6x-histidine (C); made in house; host or cells: HEK293 (transient transfection, secreted). Conditions: 8 nM proMMP13, 16 nM plasmin, 40 min 37° C. It is filed as biochemical. The procedure: On the day of assay, proMMP13(1-268) (SEQ ID NO:7) purified from HEK293 cells and plasmin were diluted to 160 nM and 320 nM, respectively, in assay buffer. The reaction volume was 50 μL. […] The plate was sealed and incubated for 40 min at 37° C. […] Plasmin was not reactive towards P-126 substrate under these conditions.

T3 sequence (P14780 20-707 R574P): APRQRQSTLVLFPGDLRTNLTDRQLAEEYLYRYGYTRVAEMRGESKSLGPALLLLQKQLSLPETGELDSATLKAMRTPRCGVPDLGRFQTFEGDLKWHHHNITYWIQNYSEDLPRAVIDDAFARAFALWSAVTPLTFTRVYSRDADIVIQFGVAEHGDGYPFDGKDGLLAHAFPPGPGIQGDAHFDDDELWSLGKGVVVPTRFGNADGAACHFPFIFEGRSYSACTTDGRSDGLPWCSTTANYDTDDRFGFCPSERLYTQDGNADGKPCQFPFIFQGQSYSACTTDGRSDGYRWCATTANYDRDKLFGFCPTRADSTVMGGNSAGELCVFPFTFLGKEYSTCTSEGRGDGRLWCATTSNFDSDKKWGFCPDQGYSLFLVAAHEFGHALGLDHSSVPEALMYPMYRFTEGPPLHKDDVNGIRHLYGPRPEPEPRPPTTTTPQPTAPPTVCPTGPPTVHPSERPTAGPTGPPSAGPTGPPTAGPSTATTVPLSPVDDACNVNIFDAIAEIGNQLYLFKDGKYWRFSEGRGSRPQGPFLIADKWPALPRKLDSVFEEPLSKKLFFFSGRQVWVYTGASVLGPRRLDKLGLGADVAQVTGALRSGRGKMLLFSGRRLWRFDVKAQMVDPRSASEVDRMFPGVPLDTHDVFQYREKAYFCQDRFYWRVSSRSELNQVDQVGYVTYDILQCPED

On to `Cc1nc(C)n(C)c1-c1csc(Nc2cc(S(N)(=O)=O)ccc2OC(C)C)n1` [Example 1, 4-Isopropoxy-3-[4-(2,3,5-trimethyl-3H-imidazol-4-yl)-thiazol-2-ylamino]-benzenesulfonamide], for which the results for the Kd in test [1], in test [2] and in test [4] were 4.7 µM, 8.6 µM and 1.6 µM, respectively. In test [3], this compound displayed an IC50 of 2.3 µM.

`Cc1nc(-c2csc(Nc3cc(S(N)(=O)=O)ccc3OC(C)C)n2)c(C)n1C` [Example 2, 4-Isopropoxy-3-[4-(1,2,5-trimethyl-1H-imidazol-4-yl)-thiazol-2-ylamino]-benzenesulfonamide.TFA]: the Kd came to 12 µM in test [1], 33.2 µM in test [2] and 10 µM in test [4]. Moreover, the IC50 in test [3] was ~6 µM.

With `Cc1nc(-c2csc(Nc3cc(C(N)=O)ccc3OC(C)C)n2)c(C)[nH]1` [Example 3, 3-[4-(2,5-Dimethyl-1H-imidazol-4-yl)-thiazol-2-ylamino]-4-isopropoxy-benzamide.TFA], the Kd in test [1] is 4.8 µM; in test [2] it was > 95 µM; in test [4] it was 5.1 µM. For the same compound, in test [3], the IC50 worked out at 0.79 µM.

Consider `CCOc1ccc(C#N)cc1Nc1nc(-n2cc(C)nc2C)cs1` [Example 4, 3-[4-(2,4-Dimethyl-imidazol-1-yl)-thiazol-2-ylamino]-4-ethoxy-benzonitrile], for which the Kd in test [1] was 76 µM; in test [2], 36 µM; in test [4], > 95 µM. For the same compound, the IC50 in test [3] was ~5 µM.

Turning to `CCOc1ccc(C#N)cc1Nc1nc(-c2cnn(C)c2)cs1` [Example 5, 4-Ethoxy-3-[4-(1-methyl-1H-pyrazol-4-yl)-thiazol-2-ylamino]-benzonitrile], the Kd came out at 8.9 µM in test [1], 14 µM in test [2] and 17 µM in test [4].

As for `Cc1nc(C)c(-c2csc(Nc3cc(C(N)=O)ccc3OC(C)C)n2)o1` [Example 6, 3-[4-(2,4-Dimethyl-oxazol-5-yl)-thiazol-2-ylamino]-4-isopropoxy-benzamide], the results for the Kd in test [1], in test [2] and in test [4] were 0.17 µM, 7.2 µM and 6.1 µM, respectively. The IC50 in test [3] turned out to be 0.27 µM; in test [5], 6 µM.

On to `Cc1nc(C)n(C)c1-c1csc(Nc2cc(C(N)=O)ccc2OC(C)C)n1` [Example 7, 4-Isopropoxy-3-[4-(2,3,5-trimethyl-3H-imidazol-4-yl)-thiazol-2-ylamino]-benzamide.TFA], for which the Kd in test [1] came to 5.9 µM; in test [2], 42 µM. Besides, inhibition in test [3] was half-maximal at 1.9 µM (IC50).
